pKi: −log10 of the molar value.
What was measured:
Coagulation factor X = Coagulation factor X (Homo sapiens, UniProt P00742); experiment: Binding affinity against Coagulation factor X in an enzyme inhibition assay.
Serine protease 1 = Serine protease 1 (Homo sapiens, UniProt P07477); experiment: Binding affinity against trypsin in an enzyme inhibition assay.
[1] = Half life value in rabbits; format: ADME, Oryctolagus cuniculus; details: rabbit, in vivo
[2] = Clearance rate in rabbits; format: ADME, organism-based, Oryctolagus cuniculus; details: rabbit, in vivo
Oryctolagus cuniculus = species: Oryctolagus cuniculus; experiment: Compound was tested for its effect in rabbit arterio-venous (A-V) shunt thrombosis model and the inhibitory dose was reported; format: functional

Sequence of Coagulation factor X (P00742 41-179 limits assumed): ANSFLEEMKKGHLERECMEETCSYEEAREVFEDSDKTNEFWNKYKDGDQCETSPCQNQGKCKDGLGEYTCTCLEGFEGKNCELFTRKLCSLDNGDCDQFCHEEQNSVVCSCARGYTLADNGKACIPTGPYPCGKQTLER
Sequence of Coagulation factor X (P00742 235-488 limits assumed): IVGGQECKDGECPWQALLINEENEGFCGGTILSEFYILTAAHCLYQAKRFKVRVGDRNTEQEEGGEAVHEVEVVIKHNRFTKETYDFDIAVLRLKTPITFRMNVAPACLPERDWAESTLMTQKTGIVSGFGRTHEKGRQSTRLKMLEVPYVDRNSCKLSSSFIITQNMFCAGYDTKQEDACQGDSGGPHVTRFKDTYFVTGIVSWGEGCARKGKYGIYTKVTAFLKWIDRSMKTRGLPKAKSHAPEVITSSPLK
Sequence of Serine protease 1 (P07477 whole entry): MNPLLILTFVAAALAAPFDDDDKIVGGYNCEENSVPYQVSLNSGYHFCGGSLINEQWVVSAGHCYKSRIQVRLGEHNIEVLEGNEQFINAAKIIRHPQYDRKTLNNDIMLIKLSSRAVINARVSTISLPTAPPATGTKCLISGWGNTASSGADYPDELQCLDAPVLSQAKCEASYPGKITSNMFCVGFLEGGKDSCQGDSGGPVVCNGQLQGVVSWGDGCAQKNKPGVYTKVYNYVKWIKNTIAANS

pKi (Coagulation factor X)	pKi (Serine protease 1)	half-life [1] [h]	clearance [2] [mL/min/kg]	Structure (SMILES)	ID50 (Oryctolagus cuniculus) [µM/h/kg]
7.59	6.12	–	–	CCOC(=O)[C@]1(C)CN(Cc2ccc(-c3ccccc3S(N)(=O)=O)cc2)C[C@H]1c1cccc(C(=N)N)c1	–
8.89	–	–	–	COC(=O)CN(CCCc1ccc(-c2ccccc2S(N)(=O)=O)cc1)c1cccc(C(=N)N)c1	–
6.22	–	–	–	N=C(N)c1cccc([C@@H]2CN(Cc3ccc(-c4ccccc4S(N)(=O)=O)cc3)C[C@H]2C(=O)O)c1	–
6.40	–	–	–	CN(C)C(=O)[C@@H]1CN(Cc2ccc(-c3ccccc3S(N)(=O)=O)cc2)C[C@H]1c1cccc(C(=N)N)c1	–
6.34	–	–	–	N=C(N)c1cccc([C@@H]2CN(Cc3ccc(-c4ccccc4S(N)(=O)=O)cc3)C[C@@H]2C(=O)O)c1	–
8.51	7.16	–	–	COC(=O)[C@@H]1CN(Cc2ccc(-c3ccccc3S(N)(=O)=O)cc2)O[C@H]1c1cccc(C(=N)N)c1	–
8.24	7.01	< 1	> 33.3	CC(C)OC(=O)[C@@H]1CN(Cc2ccc(-c3ccccc3S(N)(=O)=O)cc2)C[C@H]1c1cccc(C(=N)N)c1.O=C(O)C(F)(F)F.O=C(O)C(F)(F)F	–
6.77	< 5.80	–	–	COC(=O)[C@H]1CN(Cc2ccc(-c3ccccc3S(N)(=O)=O)cc2)C[C@H]1c1cccc(C(=N)N)c1	–
8.47	7.28	–	–	COC(=O)[C@@H]1CN(Cc2ccc(-c3ccccc3S(N)(=O)=O)cc2)C[C@H]1c1cccc(C(=N)N)c1 (stereo in doubt; 15)	–
7.44	6.70	–	–	CC(=O)[C@@H]1CN(Cc2ccc(-c3ccccc3S(N)(=O)=O)cc2)C[C@H]1c1cccc(C(=N)N)c1	–
7.89	6.70	–	–	COC(=O)[C@H]1CN(Cc2ccc(-c3ccccc3S(N)(=O)=O)cc2)C[C@@H]1c1cccc(C(=N)N)c1	–
6.82	6.30	–	–	N=C(N)c1cccc([C@@H]2CN(Cc3ccc(-c4ccccc4S(N)(=O)=O)cc3)C[C@H]2C(N)=O)c1	–
8.74	7.03	< 1	> 33.3	CC(C)OC(=O)[C@@H]1CN(Cc2ccc(-c3ccccc3S(N)(=O)=O)cc2)O[C@H]1c1cccc(C(=N)N)c1.O=C(O)C(F)(F)F.O=C(O)C(F)(F)F	–
7.92	6.96	–	–	CCCCOC(=O)[C@@H]1CN(Cc2ccc(-c3ccccc3S(N)(=O)=O)cc2)C[C@H]1c1cccc(C(=N)N)c1	–
8.32	7.20	–	–	COC(=O)[C@@H]1CN(Cc2ccc(-c3ccccc3S(N)(=O)=O)cc2)C[C@H]1c1cccc(C(=N)N)c1.O=C(O)C(F)(F)F.O=C(O)C(F)(F)F (stereo in doubt; 10)	>1.4

— ChEMBL document CHEMBL1131683, “Preparation of pyrrolidine and isoxazolidine benzamidines as potent inhibitors of coagulation factor Xa” (Bioorg Med Chem Lett, 1999)
